Experimental data as given in publication PMC9962735, “Synthesis and Cytotoxic Activity of the Derivatives of N-(Purin-6-yl)aminopolymethylene Carboxylic Acids and Related Compounds” (Molecules, 2023).

How the values were obtained:
COLO201 cells = test: Cell cycle analysis by flow cytometry (propidium iodide), COLO201; type: cell-based, human; conditions: for Cell proliferation index (%) / Number of cells (%) in cell cycle phase G0/G1 / Number of cells (%) in cell cycle phase G2M / Number of cells (%) in cell cycle phase S: 24 h, M ± SD (n = 3)
Method: To study the potential cytostatic effect of compound 1d, we chose the method of cell cycle analysis using flow cytometry by DNA staining with propidium iodide.
To analyze possible effects on the cell cycle, we tested three concentrations of compound 1d, which were close to CC50 calculated on the basis of viability assessment data (MTT assay).
Cell cycle analysis was performed by flow cytometry by staining DNA with propidium iodide (PI). For this, cells were seeded into 6-well plates: 2 × 10^5 COLO201 cells per well and 1.2 × 10^5 MDA-MB-231 cells per well. […] The final concentration of DMSO in the culture medium was 0.1%; an equivalent volume was added to the control cells. The plates were incubated for 24 h in a CO2 incubator. Then, cells were detached from the plastic surface using TrypLE, washed with PBS, and fixed with 70% ethanol. Next, the cells were incubated for 1 h in the dark at 4 °C, then sedimented by centrifugation at 184× g for 10 min, and washed twice with PBS. PBS (0.3 mL) containing 0.1% Triton X-100, 1 µg/mL PI, and 0.2 mg/mL RNAse A was added to the pellet, incubated for 30 min at room temperature in the dark, and analyzed on a CytoFlex flow cytometer (Beckman Coulter, Brea, CA, USA).
The cell population in the test sample was found and gated on forward versus side scatter (FSC-A vs. SSC-A). Next, doublets were discriminated and removed via PI signal height versus PI signal area (PI-H vs. PI-A). For cell cycle phases analysis, PI-A was plotted against number of events (number of cells) (PI-A vs. Count).
The flow cytometry data were processed using the Kaluza Analysis 2.1 software (Beckman Coulter, Brea, CA, USA). Percentages of cell populations distributed in the various phases of the cell cycle (sub-G1, G0/G1, S, and G2M) were calculated. The result was considered significant if the coefficient of variation (CV) was less than 6.

Vero E6 cells = test system: Vero E6 cells; set-up: method as in doi:10.1007/s10593-021-02929-z; conditions: cited from earlier work
[1] = Solubility in aqueous media; type: physicochemical; conditions: result in words
[2] = test system: herpes simplex virus type 1 (HSV-1), including acyclovir-resistant HSV-1 strain; set-up: method as in doi:10.1002/ejoc.201900727, doi:10.1515/pac-2019-1214, doi:10.1007/s10593-021-02929-z; conditions: HSV-1 including acyclovir-resistant strain; cited from earlier work

Structure (SMILES) | Cell proliferation index (%) (COLO201 cells; COLO201, 0.9×10–6 M) | Number of cells (%) in cell cycle phase G0/G1 (COLO201 cells; COLO201, 0.9×10–6 M) [%] | Number of cells (%) in cell cycle phase G2M (COLO201 cells; COLO201, 0.9×10–6 M) [%] | Number of cells (%) in cell cycle phase S (COLO201 cells; COLO201, 0.9×10–6 M) [%] | Cell proliferation index (%) (COLO201 cells; COLO201, 1×10–6 M) | Number of cells (%) in cell cycle phase G0/G1 (COLO201 cells; COLO201, 1×10–6 M) [%] | Number of cells (%) in cell cycle phase G2M (COLO201 cells; COLO201, 1×10–6 M) [%] | Number of cells (%) in cell cycle phase S (COLO201 cells; COLO201, 1×10–6 M) [%] | Cell proliferation index (%) (COLO201 cells; COLO201, 2×10–6 M) | Number of cells (%) in cell cycle phase G0/G1 (COLO201 cells; COLO201, 2×10–6 M) [%] | Number of cells (%) in cell cycle phase G2M (COLO201 cells; COLO201, 2×10–6 M) [%] | Number of cells (%) in cell cycle phase S (COLO201 cells; COLO201, 2×10–6 M) [%] | cell cycle arrest phase (COLO201 cells; COLO201, concentrations close to CC50, 24 h) | cell proliferation index (COLO201 cells; COLO201, concentrations close to CC50, 24 h, range over the concentrations) | concentration which caused the death of 50% Vero E6 cells (Vero E6 cells) | solubility in aqueous media [1] | antiviral activity in vitro against HSV-1 [2]
CC1COc2c(ccc(F)c2F)N1C(=O)CCCCCCCCCCNc1ncnc2[nH]cnc12 (centres unmarked) [Compound 1d] | 37.05 | 62.95 | 15.70 | 21.35 | 36.78±0.29 | 63.21 | 15.41±0.74 | 21.38 | 35.35 | 64.60 | 16.84 | 18.51 | cell cycle arrest occurred in the G2/M phase | 35–37% | less than 30 µM | low solubility in aqueous media | 
CC1COc2c(ccc(F)c2F)N1C(=O)CCCCCCCNc1ncnc2[nH]cnc12 (centres unmarked) [Compound 1c] |  |  |  |  |  |  |  |  |  |  |  |  |  |  |  |  | high antiviral activity
